Measurements published in ChEMBL document CHEMBL1201862, “PubChem BioAssay data set” (2004).
“And” between values parts separate entries of the source, which are not always exact repeats. Equal entries are not always repeated.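 Results reflect a 48-hour exposure of cells in 96-well plates to compound at five concentrations. Abbreviation: GI50, concentration required for 50% inhibition of growth.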 The source made the active and inactive calls. No stated cut-off is given here; in the data, active = GI50 up to about 1.1 µM and inactive = higher.

How the values were obtained:
Assay in all cases: NCI anticancer screen, dose series, 48 h
A498 = system: A498
UACC-257 = system: UACC-257
SK-MEL-5 = system: SK-MEL-5
Malme-3M = system: Malme-3M
SK-OV-3 = system: SK-OV-3
RXF 393 = system: RXF 393
HT-29 = system: HT-29
MDA-N = system: MDA-N
PC-3 = system: PC-3
ACHN = system: ACHN
MDA-MB-435 = system: MDA-MB-435
NCI-H460 = system: NCI-H460
HOP-62 = system: HOP-62
SR = system: SR
SK-MEL-2 = system: SK-MEL-2
MOLT-4 = system: MOLT-4
SN12C = system: SN12C
MDA-MB-231 = system: MDA-MB-231
HCT-116 = system: HCT-116
NCI-H522 = system: NCI-H522
OVCAR-4 = system: OVCAR-4
T47D = system: T47D
HCC 2998 = system: HCC 2998
U-251 = system: U-251
NCI/ADR-RES = system: NCI/ADR-RES
KM12 = system: KM12
CAKI-1 = system: CAKI-1
SF-539 = system: SF-539
IGROV-1 = system: IGROV-1
SW-620 = system: SW-620
M14 = system: M14
MCF7 = system: MCF7
HOP-92 = system: HOP-92
A549 = system: A549
OVCAR-3 = system: OVCAR-3
UO-31 = system: UO-31
786-0 = system: 786-0
HL-60 = system: HL-60
UACC-62 = system: UACC-62
EKVX = system: EKVX
SF-295 = system: SF-295
SNB-75 = system: SNB-75
COLO 205 = system: COLO 205
SK-MEL-28 = system: SK-MEL-28
HCT-15 = system: HCT-15
RPMI-8226 = system: RPMI-8226
CCRF-CEM = system: CCRF-CEM
NCI-H226 = system: NCI-H226
NCI-H23 = system: NCI-H23
OVCAR-8 = system: OVCAR-8
OVCAR-5 = system: OVCAR-5
BT-549 = system: BT-549
Hs-578T = system: Hs-578T
TK-10 = system: TK-10
LOX IMVI = system: LOX IMVI
SF-268 = system: SF-268
SNB-19 = system: SNB-19
K562 = system: K562
DU-145 = system: DU-145

Measured: GI50

CCCCC1=NNC(=O)C1
inactive: A498 > 100 µM | UACC-257 > 100 µM | SK-MEL-5 > 100 µM | Malme-3M > 100 µM | SK-OV-3 > 100 µM | RXF 393 > 100 µM | HT-29 > 100 µM | MDA-N > 100 µM | PC-3 > 100 µM | ACHN > 100 µM | MDA-MB-435 > 100 µM | NCI-H460 > 100 µM | HOP-62 > 100 µM | SR > 100 µM | SK-MEL-2 > 100 µM | MOLT-4 > 100 µM | SN12C > 100 µM | MDA-MB-231 > 100 µM | HCT-116 > 100 µM | NCI-H522 > 100 µM | OVCAR-4 > 100 µM | T47D > 100 µM | HCC 2998 > 100 µM | U-251 > 100 µM | NCI/ADR-RES > 100 µM | KM12 > 100 µM | CAKI-1 > 100 µM | SF-539 > 100 µM | IGROV-1 > 100 µM | SW-620 > 100 µM | M14 > 100 µM | MCF7 > 100 µM | HOP-92 > 100 µM | A549 > 100 µM | OVCAR-3 > 100 µM | UO-31 > 100 µM | 786-0 > 100 µM | HL-60 > 100 µM | UACC-62 > 100 µM | EKVX > 100 µM | SF-295 > 100 µM | SNB-75 > 100 µM | COLO 205 > 100 µM | SK-MEL-28 > 100 µM | RPMI-8226 > 100 µM | CCRF-CEM > 100 µM | NCI-H226 > 100 µM | NCI-H23 > 100 µM | OVCAR-8 > 100 µM | OVCAR-5 > 100 µM | BT-549 > 100 µM | Hs-578T 4.9 µM
> 100 µM: HCT-15

CC/C(=N\NC(=O)c1cccnc1)c1ccc2c(c1)OCCO2
inactive: TK-10 > 100 µM | A498 > 100 µM | SK-MEL-5 33.7 µM | Malme-3M 28.4 µM | SK-OV-3 > 100 µM | RXF 393 > 100 µM | HT-29 > 100 µM | MDA-N 30.9 µM | PC-3 > 100 µM | ACHN > 100 µM | MDA-MB-435 34.5 µM | NCI-H460 > 100 µM | HOP-62 > 100 µM | SK-MEL-2 > 100 µM | MOLT-4 > 100 µM | LOX IMVI > 100 µM | SN12C > 100 µM | MDA-MB-231 74.8 µM | HCT-116 > 100 µM | NCI-H522 29.1 µM | OVCAR-4 > 100 µM | T47D > 100 µM | U-251 > 100 µM | NCI/ADR-RES > 100 µM | KM12 96.6 µM | CAKI-1 > 100 µM | SF-539 > 100 µM | IGROV-1 > 100 µM | SW-620 > 100 µM | M14 > 100 µM | MCF7 66.5 µM | A549 > 100 µM | SF-268 > 100 µM | SNB-19 > 100 µM | OVCAR-3 > 100 µM | K562 76 µM | UO-31 > 100 µM | 786-0 > 100 µM | HL-60 > 100 µM | UACC-62 87.9 µM | EKVX 64.1 µM | SF-295 > 100 µM | SNB-75 > 100 µM | COLO 205 > 100 µM | DU-145 > 100 µM | SK-MEL-28 > 100 µM | RPMI-8226 > 100 µM | CCRF-CEM > 100 µM | NCI-H226 > 100 µM | NCI-H23 > 100 µM | OVCAR-8 > 100 µM | OVCAR-5 > 100 µM | BT-549 > 100 µM | Hs-578T 12.4 µM
> 100 µM: HCT-15

CCOC(=O)c1sc2nc(SC)nc3c2c1NCN3C
> 100 µM: HCT-15
inactive: TK-10 25 µM | A498 15.2 µM | UACC-257 > 100 µM | SK-MEL-5 51.5 µM | Malme-3M 24.8 µM | SK-OV-3 16.1 µM | RXF 393 13.2 µM | HT-29 > 100 µM | MDA-N > 100 µM | PC-3 > 100 µM | ACHN 18.7 µM | MDA-MB-435 > 100 µM | NCI-H460 32.1 µM | HOP-62 15.1 µM | SK-MEL-2 86.1 µM | LOX IMVI 36 µM | SN12C 30.6 µM | MDA-MB-231 28.1 µM | HCT-116 22 µM | OVCAR-4 20.4 µM | T47D 6.79 µM | HCC 2998 62.1 µM | U-251 20.6 µM | NCI/ADR-RES 19.6 µM | KM12 > 100 µM | CAKI-1 22.5 µM | IGROV-1 13 µM | M14 76.9 µM | HOP-92 11.5 µM | A549 16.9 µM | SF-268 16.7 µM | SNB-19 20.5 µM | OVCAR-3 > 100 µM | UO-31 11.9 µM | 786-0 15.2 µM | UACC-62 42.7 µM | SF-295 27.9 µM | SNB-75 5.78 µM | COLO 205 > 100 µM | DU-145 70.1 µM | SK-MEL-28 > 100 µM | RPMI-8226 > 100 µM | CCRF-CEM > 100 µM | NCI-H226 31.7 µM | NCI-H23 22 µM | OVCAR-8 10.7 µM | OVCAR-5 36.1 µM | BT-549 35.7 µM | Hs-578T 20.1 µM

Cc1nc2c(Br)cc(Br)cc2c(=O)n1-c1ccccc1NC1OCC(O)C(O)C1O (stereo not drawn)
inactive: TK-10 23.4 µM and 40.9 µM | UACC-257 23.7 µM and 44.8 µM | Malme-3M 28.3 µM and 37.8 µM | HT-29 24.9 µM and 15.3 µM | MDA-N 33.7 µM and 41.4 µM | PC-3 33.3 µM and 46 µM | ACHN 17.2 µM and 32.3 µM | MDA-MB-435 42.1 µM and 39.4 µM | SK-MEL-2 38.8 µM and 34.3 µM | LOX IMVI 14.6 µM and 21.6 µM | MDA-MB-231 27.2 µM and 45.7 µM | HCT-116 24.7 µM and 16 µM | NCI-H522 19.7 µM and 17.4 µM | OVCAR-4 24.1 µM and 39.1 µM | T47D 44 µM and 30.5 µM | HCC 2998 33.7 µM | KM12 24.7 µM | CAKI-1 45.2 µM and 28.4 µM | IGROV-1 41.4 µM and 21.2 µM | SW-620 28.6 µM | M14 21.8 µM and 32.7 µM | HOP-92 19.6 µM and 35.8 µM | SNB-19 40.8 µM and 22.9 µM | OVCAR-3 24.3 µM and 20.9 µM | UO-31 42.2 µM and 30.5 µM | EKVX 48.6 µM and 39 µM | SNB-75 18.8 µM and 33 µM | COLO 205 18.6 µM and 17.6 µM | SK-MEL-28 69.2 µM and 74.3 µM | CCRF-CEM 21.5 µM and 11.5 µM | NCI-H23 20.7 µM and 38 µM | OVCAR-5 44.2 µM and 42.7 µM | BT-549 26.5 µM and 29.3 µM | Hs-578T > 25.5 µM and 39.7 µM
48.8 µM and 41.1 µM: HCT-15

N#CC(Nc1ccccc1)c1ccc(C(C#N)Nc2ccccc2)cc1 (stereo not drawn)
inactive: TK-10 28.4 µM | A498 > 100 µM | UACC-257 81.3 µM | SK-MEL-5 20.3 µM | Malme-3M > 100 µM | SK-OV-3 > 100 µM | RXF 393 > 100 µM | HT-29 20.8 µM | MDA-N 13.2 µM | PC-3 28.8 µM | ACHN 22.3 µM | MDA-MB-435 13.7 µM | NCI-H460 44.6 µM | SK-MEL-2 > 100 µM | MOLT-4 32.2 µM | LOX IMVI 1.17 µM | SN12C 46.8 µM | MDA-MB-231 > 100 µM | HCT-116 16.7 µM | NCI-H522 > 100 µM | OVCAR-4 > 100 µM | T47D 24.8 µM | HCC 2998 30.3 µM | U-251 25.4 µM | NCI/ADR-RES 46.7 µM | KM12 > 100 µM | CAKI-1 61.4 µM | SF-539 25.7 µM | IGROV-1 34.6 µM | SW-620 20.2 µM | M14 13.7 µM | MCF7 29 µM | HOP-92 28.1 µM | A549 > 100 µM | SF-268 > 100 µM | SNB-19 44.5 µM | OVCAR-3 35.9 µM | UO-31 21.1 µM | 786-0 36.5 µM | HL-60 5.79 µM | UACC-62 3.57 µM | EKVX > 100 µM | SF-295 40 µM | COLO 205 27.1 µM | DU-145 44.1 µM | SK-MEL-28 41.2 µM | CCRF-CEM 5.07 µM | NCI-H226 > 100 µM | NCI-H23 41.5 µM | OVCAR-8 > 100 µM | OVCAR-5 > 100 µM | BT-549 38.6 µM | Hs-578T > 100 µM
18.2 µM: HCT-15
active: K562 0.724 µM
